{"source": "patent US20210189342A1", "about": "“COMPOSITIONS AND METHODS FOR MODULATING MONOCYTE AND MACROPHAGE INFLAMMATORY PHENOTYPES AND IMMUNOTHERAPY USES THEREOF” (Verseau Therapeutics, Inc., priority 2018, published 2021)", "data": [{"system": "SIGLEC7", "assay": "siRNA dose response, SIGLEC7 mRNA knockdown, Dual-Glo Luciferase Assay", "assay_type": "cell-based, human", "settings": "Hepa1-6 + reporter plasmid, 24 hr", "method": "(§1) Dose response curves for siRNAs were generated in vitro using a variety of cell lines according to Table 4.\n(§2) Briefly, cells were seeded in 96-well plates and reverse transfected with siRNA, Lipofectamine® 2000 (0.5 uL/well; ThermoFisher), and, in some cases, a reporter plasmid (50 ng/well). The reporter plasmid (psiCHECK™-2, Promega) encoded both firefly luciferase and the gene of interest fused to renilla luciferase; silencing of the gene of interest results in proportional silencing of renilla luciferase but leaves firefly luciferase unaffected as an internal control.\n(§3) After 24 hr incubation at 37° C., mRNA knockdown was measured using an endpoint assay. For targets without a reporter plasmid, a branched DNA (bDNA) assay was performed according to the manufacturer's instructions (QuantiGene® Singleplex Gene Expression Assay, ThermoFisher) to measure both the target gene and GAPDH (housekeeping gene) mRNA. Data are plotted as siRNA concentration (nM) vs. remaining mRNA (ratio of target gene to GAPDH, normalized to mock siRNA-transfected cells). For targets with a reporter plasmid, a Dual-Glo® Luciferase Assay was performed according to the manufacturer's instructions (Promega) to measure firefly and renilla luciferase expression. Data are plotted as siRNA concentration (nM) vs. remaining mRNA (ratio of renilla to firefly luminescence, normalized to mock siRNA-transfected cells).\n(§4) For all dose response curves, a 4-parameter logistic model was applied to determine the IC50 of each siRNA sequence (Table 5 and FIG. 2). Data shown in Table 5 and FIG. 2 represent the mean of quadruplicates, +/−standard deviation.", "units": {"IC50": "nM"}, "values": [{"substance": "XD-10602: siRNA targeting SIGLEC7 (sense 5'-guAAccGGAAGGAuuAcusa-3'; antisense 5'-dTAGuAAUCCUUCCGGUuACusu-3'; RNA with 2'-O-methyl and phosphorothioate modifications, case key not given here, as printed in the source, key not given here)", "IC50": 3.53}, {"substance": "XD-10605: siRNA targeting SIGLEC7 (sense 5'-ggAuuACucGcuGacGAusa-3'; antisense 5'-dTAUCGUcAGCGAGUAAUCCusu-3'; RNA with 2'-O-methyl and phosphorothioate modifications, case key not given here, as printed in the source, key not given here)", "IC50": 0.022}, {"substance": "XD-10604: siRNA targeting SIGLEC7 (sense 5'-ggAAGGAuuAcucgcuGasa-3'; antisense 5'-dTUcAGCGAGuAAUCCUUCCusu-3'; RNA with 2'-O-methyl and phosphorothioate modifications, case key not given here, as printed in the source, key not given here)", "IC50": 0.032}, {"substance": "XD-10609: siRNA targeting SIGLEC7 (sense 5'-ggAAuGAuAuAAGcuGGasa-3'; antisense 5'-dTUCcAGCUuAuAUCAUUCCusu-3'; as printed in the source, key not given here)", "IC50": 0.059}, {"substance": "XD-10607: siRNA targeting SIGLEC7 (sense 5'-cgGGcAGGGAAuGauAuasa-3'; antisense 5'-dTUAuAUcAUUCCCUGCCCGusu-3'; as printed in the source, key not given here)", "IC50": 0.039}, {"substance": "XD-10601: siRNA targeting SIGLEC7 (sense 5'-gaGuAACcGGAAGgAuuasa-3'; antisense 5'-dTUAAUCCUUCCGGUuACUCusu-3'; RNA with 2'-O-methyl and phosphorothioate modifications, case key not given here, as printed in the source, key not given here)", "IC50": 0.127}, {"substance": "XD-10600: siRNA targeting SIGLEC7 (sense 5'-agAGuAAccGGAAgCAuusa-3'; antisense 5'-dTAAUCCUUCCGGUUACUCUusu-3'; RNA with 2'-O-methyl and phosphorothioate modifications, case key not given here, as printed in the source, key not given here)", "IC50": 0.155}, {"substance": "XD-10606: siRNA targeting SIGLEC7 (sense 5'-ccGuGcAAGAGGGcAuGusa-3'; antisense 5'-dTAcAUGCCCUCUUGcACGGusu-3'; RNA with 2'-O-methyl and phosphorothioate modifications, case key not given here, as printed in the source, key not given here)", "IC50": 0.045}, {"substance": "XD-10603: siRNA targeting SIGLEC7 (sense 5'-cgGAAGGAuuAcucGcugsa-3'; antisense 5'-dTCAGCGAGuAAUCCUUCCGusu-3'; RNA with 2'-O-methyl and phosphorothioate modifications, case key not given here, as printed in the source, key not given here)", "IC50": 0.029}, {"substance": "XD-10608: siRNA targeting SIGLEC7 (sense 5'-gcAGGGAAuGAuAuAAGcsa-3'; antisense 5'-dTGCUuAuAUcAUUCCCUGCusu-3'; as printed in the source, key not given here)", "IC50": 0.056}]}, {"system": "CD74", "assay": "siRNA dose response, CD74 mRNA knockdown, bDNA Assay", "assay_type": "cell-based, human", "settings": "THP-1, 24 hr", "method": "as §1, §2, §3, §4", "units": {"IC50": "nM"}, "values": [{"substance": "XD-09224: siRNA targeting CD74 (sense 5'-gcGcGAccuuAucuccAAcdTsdT-3'; antisense 5'-GUUGGAGAuAAGGUCGCGCdTsdT-3'; as printed in the source, key not given here)", "IC50": 1.98}, {"substance": "XD-09230: siRNA targeting CD74 (sense 5'-gacAAAccAAGucgGaacAdTsdT-3'; antisense 5'-UGUUCCGACUUGGUUUGUCdTsdT-3'; as printed in the source, key not given here)", "IC50": 0.196}, {"substance": "XD-09232: siRNA targeting CD74 (sense 5'-agcuAGAcAGAuccccGuudTsdT-3'; antisense 5'-AACGGGGAUCUGUCuAGCUdTsdT-3'; RNA with 2'-O-methyl and phosphorothioate modifications, case key not given here, as printed in the source, key not given here)", "IC50": 0.747}, {"substance": "XD-09237: siRNA targeting CD74 (sense 5'-ccAuAAuccuuucuGccGAdTsdT-3'; antisense 5'-UCGGcAGAAAGGAUuAUGGdTsdT-3'; as printed in the source, key not given here)", "IC50": 1.84}, {"substance": "XD-09223: siRNA targeting CD74 (sense 5'-ggAGcuGucGGGAaGAucAdTsdT-3'; antisense 5'-UGAUCUUCCCGAcAGCUCCdTsdT-3'; as printed in the source, key not given here)", "IC50": 0.34}, {"substance": "XD-09239: siRNA targeting CD74 (sense 5'-ggccAuGGuucAcauuAGAdTsdT-3'; antisense 5'-UCuAAUGUGAACcAUGGCCdTsdT-3'; as printed in the source, key not given here)", "IC50": 0.07}, {"substance": "XD-09226: siRNA targeting CD74 (sense 5'-cuGGAcAAAcuGAcAGucAdTsdT-3'; antisense 5'-AGACUGUcAGUUUGUCcAGdTsdT-3'; RNA with 2'-O-methyl and phosphorothioate modifications, case key not given here, as printed in the source, key not given here)", "IC50": 0.143}, {"substance": "XD-09227: siRNA targeting CD74 (sense 5'-ggAAcuGGAGGAcccGucudTsdT-3'; antisense 5'-AGACGGGUCCUCcAGUUCCdTsdT-3'; RNA with 2'-O-methyl and phosphorothioate modifications, case key not given here, as printed in the source, key not given here)", "IC50": 0.583}]}, {"system": "CD48", "assay": "siRNA dose response, CD48 mRNA knockdown, Dual-Glo Luciferase Assay", "assay_type": "cell-based, human", "settings": "Hepa1-6 + reporter plasmid, 24 hr", "method": "as §1, §2, §3, §4", "units": {"IC50": "nM"}, "values": [{"substance": "XD-09721: siRNA targeting CD48 (sense 5'-cuAAccuGGuuuuauAcuudTsdT-3'; antisense 5'-AAGuAuAAAACcAGGUuAGdTsdT-3'; RNA with 2'-O-methyl and phosphorothioate modifications, case key not given here, as printed in the source, key not given here)", "IC50": 0.009}, {"substance": "XD-09722: siRNA targeting CD48 (sense 5'-cuuucGAccAGAAgAuuGudTsdT-3'; antisense 5'-AcAAUCUUCUGGUCGAAAGdTsdT-3'; RNA with 2'-O-methyl and phosphorothioate modifications, case key not given here, as printed in the source, key not given here)", "IC50": 0.014}, {"substance": "XD-09720: siRNA targeting CD48 (sense 5'-cucuGGAAuuGcuacuGcudTsdT-3'; antisense 5'-AGcAGuAGcAAUUCcAGAGdTsdT-3'; as printed in the source, key not given here)", "IC50": 0.012}, {"substance": "XD-09726: siRNA targeting CD48 (sense 5'-acAAcuGuuAucugAAAcudTsdT-3'; antisense 5'-AGUUUcAGAuAAcAGUUGUdTsdT-3'; as printed in the source, key not given here)", "IC50": 0.017}, {"substance": "XD-09727: siRNA targeting CD48 (sense 5'-ccuGGcGAGucuGuAAAcudTsdT-3'; antisense 5'-AGUUuAcAGACUCGCcAGGdTsdT-3'; as printed in the source, key not given here)", "IC50": 0.046}, {"substance": "XD-09729: siRNA targeting CD48 (sense 5'-uguuAuAcuuGccaAGucAdTsdT-3'; antisense 5'-UGACUUGGcAAGuAuAAcAdTsdT-3'; as printed in the source, key not given here)", "IC50": 0.015}, {"substance": "XD-09724: siRNA targeting CD48 (sense 5'-gaAuccAAAuuuAaAGGcAdTsdT-3'; antisense 5'-UGCCUUuAAAUUUGGAUUCdTsdT-3'; as printed in the source, key not given here)", "IC50": 0.055}, {"substance": "XD-09725: siRNA targeting CD48 (sense 5'-cccAAGccuGucAucAAAAdTsdT-3'; antisense 5'-UUUUGAUGAcAGGCUUGGGdTsdT-3'; RNA with 2'-O-methyl and phosphorothioate modifications, case key not given here, as printed in the source, key not given here)", "IC50": 0.022}, {"substance": "XD-09723: siRNA targeting CD48 (sense 5'-uccAGAAAAucuAaGuAcudTsdT-3'; antisense 5'-AGuACUuAGAUUUUCUGGAdTsdT-3'; as printed in the source, key not given here)", "IC50": 0.03}, {"substance": "XD-09728: siRNA targeting CD48 (sense 5'-cuGGcGAGucuGuaAAcuAdTsdT-3'; antisense 5'-UagUUuAcAGACUCGCcAGdTsdT-3'; as printed in the source, key not given here)", "IC50": 0.032}]}]}
